The record followed here is ChEMBL document CHEMBL1151001, “Nonpeptide angiotensin II receptor antagonists: the discovery of DMP 581 and DMP 811” (Bioorg Med Chem Lett, 1994).

Data set [1] is described as follows: Oral bioavailability. It counts as ADME, organism-based, Canis lupus familiaris. The settings on record: dog, in vivo.
In data set [2] the test system is Rattus norvegicus. Briefly: Antihypertensive potency expressed as effective dose (iv) that lowers the mean arterial blood pressure by 30 mm Hg in renal hypertensive rats. It counts as functional. The settings on record: Artery.
The species entered for data set [3] is Rattus norvegicus. Briefly: Oral antihypertensive potency expressed as effective dose that lowers the mean arterial blood pressure by 30 mm Hg in renal hypertensive rats. It counts as functional.
Data set [4] is described as follows: Oral bioavailability in dog (dosed as neat powder in hard gelatin capsule). It counts as ADME, organism-based, Canis lupus familiaris. The settings on record: in vivo.

In general, bioavailability refers to the share of a dose that reaches the circulation, judged against a reference dose that is usually intravenous. `CCCc1nc(CC)c(C(=O)O)n1Cc1ccc(-c2ccccc2-c2nnn[nH]2)cc1` registered a bioavailability in data set [1] of 15%. Further, the ED30 in the data set on Rattus norvegicus [2] was 0.005 mg/kg; in the data set listed under Rattus norvegicus [3], 0.03 mg/kg.

Molecule `CCCc1nc(C(C)C)c(C(=O)O)n1Cc1ccc(-c2ccccc2-c2nn[nH]n2)cc1` returned an ED30 in the data set filed under Rattus norvegicus [3] of 0.11 mg/kg.

`CCCc1nc(CC)c(C(=O)OCc2oc(=O)oc2-c2ccccc2)n1Cc1ccc(-c2ccccc2-c2nn[nH]n2)cc1` returned an ED30 in the data set listed under Rattus norvegicus [3] of 0.3 mg/kg. In turn, `CCCc1nc(CC)c(C(=O)OCc2oc(=O)oc2C(C)(C)C)n1Cc1ccc(-c2ccccc2-c2nn[nH]n2)cc1` returned an ED30 in the data set listed under Rattus norvegicus [3] of 0.1 mg/kg. In the case of `CCCc1nc(CC)c(C(=O)OC(C)OC(=O)OC)n1Cc1ccc(-c2ccccc2-c2nn[nH]n2)cc1` (configuration not stated), the ED30 in the data set listed under Rattus norvegicus [3] is 0.02 mg/kg. In turn, `CCCc1nc(CC(C)C)c(C(=O)O)n1Cc1ccc(-c2ccccc2-c2nn[nH]n2)cc1` displayed an ED30 in the data set filed under Rattus norvegicus [3] of 0.87 mg/kg. In the data set filed under Rattus norvegicus [3], `CCCc1nc(CCC)n(Cc2ccc(-c3ccccc3-c3nn[nH]n3)cc2)c1C=O` showed an ED30 of 0.3 mg/kg. In the data set filed under Rattus norvegicus [3], `CCCc1nc(CC)c(C(=O)OCOC(=O)OC)n1Cc1ccc(-c2ccccc2-c2nn[nH]n2)cc1` had an ED30 of 0.03 mg/kg. `CCCc1nc(C)c(C=O)n1Cc1ccc(-c2ccccc2-c2nn[nH]n2)cc1` had an ED30 in the data set filed under Rattus norvegicus [3] of 0.1 mg/kg. Molecule `CCCc1nc(C(C)(C)C)c(C(=O)O)n1Cc1ccc(-c2ccccc2-c2nn[nH]n2)cc1` gave an ED30 in the data set listed under Rattus norvegicus [3] of 0.35 mg/kg.

On to `CCCc1nc(CCC)n(Cc2ccc(-c3ccccc3-c3nn[nH]n3)cc2)c1C(=O)O`, for which the ED30 in the data set listed under Rattus norvegicus [3] is 0.63 mg/kg. Same read-out and setting: then `CCCc1nc(C(C)(C)C)c(C=O)n1Cc1ccc(-c2ccccc2-c2nn[nH]n2)cc1`, with 0.048 mg/kg; and `CCCc1nc(CC)c(C(=O)OCOC(=O)OC(C)(C)C)n1Cc1ccc(-c2ccccc2-c2nn[nH]n2)cc1`, with 0.02 mg/kg; and `CCCc1nc(C(C)CC)c(C=O)n1Cc1ccc(-c2ccccc2-c2nn[nH]n2)cc1` (configuration not stated), with 0.33 mg/kg. Take `CCCc1nc(CC)c(C(=O)OCOC(=O)C(C)(C)C)n1Cc1ccc(-c2ccccc2-c2nn[nH]n2)cc1`: in the data set listed under Rattus norvegicus [3], the ED30 is 0.03 mg/kg. On to `CCCc1nc(CC)c(C=O)n1Cc1ccc(-c2ccccc2-c2nnn[nH]2)cc1`, for which the values for the bioavailability in data set [1] and in data set [4] were roughly 100% and 70%, respectively. Also, the ED30 amounted to 0.11 mg/kg in the data set with Rattus norvegicus [2] and 0.027 mg/kg in the data set filed under Rattus norvegicus [3].

The molecule `CCCCc1nc(CCC)n(Cc2ccc(-c3ccccc3-c3nn[nH]n3)cc2)c1C=O` came in with an ED30 in the data set filed under Rattus norvegicus [3] of 1 mg/kg. Same read-out and setting: for `CCCc1nc(CC)c(C(=O)OCOC(=O)C(C)C)n1Cc1ccc(-c2ccccc2-c2nn[nH]n2)cc1` the value was 0.03 mg/kg; for `CCCc1nc(CC)c(C(=O)OCc2oc(=O)oc2C)n1Cc1ccc(-c2ccccc2-c2nn[nH]n2)cc1`, 0.1 mg/kg; for `CCCc1nc(CC)c(C(=O)OC(C)OC(=O)OC(C)(C)C)n1Cc1ccc(-c2ccccc2-c2nn[nH]n2)cc1` (configuration not stated), 0.3 mg/kg. Molecule `CCCc1nc(CC(C)C)c(C=O)n1Cc1ccc(-c2ccccc2-c2nn[nH]n2)cc1` returned an ED30 in the data set filed under Rattus norvegicus [3] of 0.29 mg/kg. `CCCc1nc(C(C)CC)c(C(=O)O)n1Cc1ccc(-c2ccccc2-c2nn[nH]n2)cc1` (configuration not stated): in the data set listed under Rattus norvegicus [3], the ED30 worked out at 0.46 mg/kg. On to `CCCCc1nc(CCC)n(Cc2ccc(-c3ccccc3-c3nn[nH]n3)cc2)c1C(=O)O`, for which the ED30 in the data set filed under Rattus norvegicus [3] was determined as 1.3 mg/kg.

`CCCc1nc(C)c(C(=O)O)n1Cc1ccc(-c2ccccc2-c2nn[nH]n2)cc1` registered an ED30 in the data set filed under Rattus norvegicus [3] of 0.19 mg/kg. `CCCc1nc(C(C)C)c(C=O)n1Cc1ccc(-c2ccccc2-c2nn[nH]n2)cc1`: the ED30 in the data set filed under Rattus norvegicus [3] amounted to 0.13 mg/kg.

The molecule `CCCc1nc(C(F)(F)C(F)(F)F)c(C(=O)O)n1Cc1ccc(-c2ccccc2-c2nnn[nH]2)cc1` had a bioavailability in data set [4] of 12%. In addition, the results for the ED30 in the data set on Rattus norvegicus [2] and in the data set listed under Rattus norvegicus [3] were 0.042 mg/kg and 0.21 mg/kg, respectively. On to `CCCCc1nc(Cl)c(C(=O)O)n1Cc1ccc(-c2ccccc2-c2nn[nH]n2)cc1` [CARBOXYLIC ACID METABOLITE], for which the ED30 in the data set with Rattus norvegicus [2] was determined as 0.038 mg/kg; in the data set filed under Rattus norvegicus [3] it was 0.66 mg/kg. For the molecule `CCCCc1nc(Cl)c(CO)n1Cc1ccc(-c2ccccc2-c2nnn[nH]2)cc1` [LOSARTAN], the results for the ED30 with Rattus norvegicus [2] and in the data set listed under Rattus norvegicus [3] were 0.8 mg/kg and 0.59 mg/kg, respectively.
